Laboratory results: patent publication US10493060B2, “Spirocyclic compounds” (ZENO ROYALTIES & MILESTONES, LLC, priority 2015, dated 2019)

Experiments:
[1] = tested on: A375 (melanoma) cells; assay: Proliferation assay (CellTiter-Glo), A375; assay type: cell-based; conditions: Homo sapiens, A-375, 72 h, 3 days
Experimental: (§1) A375 (melanoma), Colo-205 (colon cancer), Miapaca (pancreatic), HPAFII (pancreatic), sNF02.0 (neurofibromatosis type 1), sNF96.2 (neurofibromatosis type 1) and 8505 (Thyroid) cells were grown and maintained in RPMI-1640 medium containing 100 U/mL penicillin-streptomycin and 10% fetal bovine serum. Cells were in growth medium in 96-well opaque-walled clear bottom plates and incubated the in the CO2 incubator overnight before treatment. Cells were treated with compounds diluted in DMSO and a 10 point 3-fold serial dilutions were done. Plates were placed in 37° C., 5% CO2 for to incubate for 3 days. Before they were developed by adding 100 μL of CellTiter-Glo reagent (Promega) to the assay plate, plates were shaken briefly for 2 mins and allowed to incubate at rt for 10 mins. The bottom of the plates was pasted with white back seal and luminescence was recorded with Flexstation3 with setting of luminescence, integration time 500 ms.

[2] = tested on: Colo-205 (colon cancer) cells; assay: Proliferation assay (CellTiter-Glo), Colo-205; assay type: cell-based; conditions: Homo sapiens, COLO 205, 72 h, Colo205 cells, 3 days
Experimental: as §1

[3] = biological target: Activated ERK1 (Homo sapiens (Human), UniProt P27361); assay: Active ERK1 kinase assay (Mobility Shift Assay); assay type: biochemical
Activated ERK1, sequence (P27361 whole entry): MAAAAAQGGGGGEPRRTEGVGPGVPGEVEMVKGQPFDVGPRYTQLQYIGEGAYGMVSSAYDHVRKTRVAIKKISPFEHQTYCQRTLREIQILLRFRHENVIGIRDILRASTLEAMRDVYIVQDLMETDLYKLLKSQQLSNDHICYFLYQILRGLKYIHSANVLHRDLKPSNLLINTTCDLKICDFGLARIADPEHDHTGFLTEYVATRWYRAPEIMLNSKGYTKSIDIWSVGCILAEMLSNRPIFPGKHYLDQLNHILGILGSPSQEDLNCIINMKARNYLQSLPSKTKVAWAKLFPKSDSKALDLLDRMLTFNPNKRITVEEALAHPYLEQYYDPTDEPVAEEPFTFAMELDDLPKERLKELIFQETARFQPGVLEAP
Experimental: (§2) Activated ERK1 and ERK2 activity was determined in a Mobility Shift Assay (MSA) format as follows: Compound and kinase solution were prepared with assay buffer (20 mM HEPES, 0.01% Triton X-100, 2 mM DTT, pH7.5) and mixed and incubated in for 30 mins at rt. ERK1 & ERK2 were then activated by the addition of Fl-Substrate, ATP and metal solution and incubated for 1 h at rt. After 1 h, the reaction was terminated by the addition of […] of Termination Buffer (QuickScout Screening Assist MSA; Carna Biosciences) to the well. The reaction mixture was applied to LabChip™ system (PerkinElmer), and the product and substrate peptide peaks were separated, analyzed and quantitated. The kinase reaction is evaluated by the product ratio calculated from peak heights of product (P) and substrate (S) peptides (P/(P+S)).

[4] = biological target: Activated ERK2 (Homo sapiens (Human), UniProt P28482); assay: Active ERK2 kinase assay (Mobility Shift Assay); assay type: biochemical
Activated ERK2, sequence (P28482 whole entry): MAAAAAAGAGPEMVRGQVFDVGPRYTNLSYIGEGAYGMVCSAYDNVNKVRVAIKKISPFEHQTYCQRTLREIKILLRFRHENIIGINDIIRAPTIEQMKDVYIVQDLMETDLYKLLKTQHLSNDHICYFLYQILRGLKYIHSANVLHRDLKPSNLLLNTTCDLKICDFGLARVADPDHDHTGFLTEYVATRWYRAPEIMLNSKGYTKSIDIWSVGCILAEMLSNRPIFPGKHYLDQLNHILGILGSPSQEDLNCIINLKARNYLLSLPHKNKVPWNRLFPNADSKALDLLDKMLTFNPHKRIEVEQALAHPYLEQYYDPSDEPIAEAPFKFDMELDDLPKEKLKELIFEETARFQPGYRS
Experimental: as §2

[5] = tested on: Mia Paca-2 (pancreatic) cells; assay: Proliferation assay (CellTiter-Glo), Mia Paca-2; assay type: cell-based; conditions: Homo sapiens, 72 h, Mia Paca-2 cells, 3 days
Experimental: as §1

[6] = tested on: sNF02.2 (neurofibromatosis type 1) cells; assay: Proliferation assay (CellTiter-Glo), sNF02.2; assay type: cell-based; conditions: 72 h, sNF02.2 cells, 3 days
Experimental: as §1

[7] = tested on: HPAFII (pancreatic) cells; assay: Proliferation assay (CellTiter-Glo), HPAFII; assay type: cell-based; conditions: Homo sapiens, HPAF-II, 72 h, 3 days
Experimental: as §1

[8] = tested on: 8505C (Thyroid) cells; assay: Proliferation assay (CellTiter-Glo), 8505C; assay type: cell-based; conditions: Homo sapiens, 72 h, 8505C cells, 3 days
Experimental: as §1

[9] = tested on: sNF96.2 (neurofibromatosis type 1) cells; assay: Proliferation assay (CellTiter-Glo), sNF96.2; assay type: cell-based; conditions: 72 h, sNF96.2 cells, 3 days
Experimental: as §1

IC50 [1] | IC50 [2] | IC50 [3] | IC50 [4] | IC50 [5] | SMILES | IC50 [6] | IC50 [7] | IC50 [8] | IC50 [9]
500 to 1000 nM | ≤ 500 nM |  |  |  | Cn1nccc1Nc1nccc(-c2ccn([C@H](CO)c3ccc(Cl)c(F)c3)c(=O)c2)n1 [GDC-0994] |  |  |  | 
≤ 500 nM |  | ≤ 50 nM | ≤ 50 nM |  | CC(C)Oc1ccc(-c2n[nH]c3ccc(N4CC[C@]5(CCN(CC(=O)N6CC=C(c7ccc(-c8ncccn8)cc7)CC6)C5)C4=O)cc23)cn1 [Example 22, (S)-2-(3-(6-Isopropoxypyridin-3-yl)-1H-indazol-5-yl)-7-(2-oxo-2-(4-(4-(pyrimidin-2-yl)phenyl)-3,6-dihydropyridin-1(2H)-yl)ethyl)-2,7-diazaspiro[4.4]nonan-1-one] |  |  |  | 
500 to 1000 nM | ≤ 500 nM | ≤ 50 nM | ≤ 50 nM |  | Cn1cnc(-c2ccc(C3=CCN(C(=O)CN4CC[C@]5(CCN(c6ccc7[nH]nc(C8CCNC(C(F)(F)F)C8)c7c6)C5=O)C4)CC3)cc2)n1 (stereo partly drawn) [Example 12, (5S)-7-(2-(4-(4-(1-Methyl-1H-1,2,4-triazol-3-yl)phenyl)-3,6-dihydropyridin-1(2H)-yl)-2-oxoethyl)-2-(3-(2-(trifluoromethyl)piperidin-4-yl)-1H-indazol-5-yl)-2,7-diazaspiro[4.4]nonan-1-one] |  |  |  | 
≤ 500 nM | ≤ 500 nM | ≤ 50 nM | ≤ 50 nM |  | CCNc1nnc(-c2ccc(C3=CCN(C(=O)CN4CC[C@]5(CCN(c6ccc7[nH]nc(-c8ccc(OC(C)C)nc8)c7c6)C5=O)C4)CC3)cc2)o1 [Example 18, (S)-7-(2-(4-(4-(5-(Ethylamino)-1,3,4-oxadiazol-2-yl)phenyl)-3,6-dihydropyridin-1(2H)-yl)-2-oxoethyl)-2-(3-(6-isopropoxypyridin-3-yl)-1H-indazol-5-yl)-2,7-diazaspiro[4.4]nonan-1-one] |  |  |  | 
≤ 500 nM |  | ≤ 50 nM | ≤ 50 nM |  | CC(C)Oc1cc(-c2n[nH]c3ccc(N4CC[C@]5(CCN(CC(=O)N6CC=C(c7ccc(-c8ncn(C)n8)cc7)CC6)C5)C4=O)cc23)ccn1 [Example 30, (S)-2-(3-(2-Isopropoxypyridin-4-yl)-1H-indazol-5-yl)-7-(2-(4-(4-(1-methyl-1H-1,2,4-triazol-3-yl)phenyl)-3,6-dihydropyridin-1(2H)-yl)-2-oxoethyl)-2,7-diazaspiro[4.4]nonan-1-one] |  |  |  | 
500 to 1000 nM |  | ≤ 50 nM | ≤ 50 nM |  | CC(C)Oc1ccc(-c2n[nH]c3ccc(N4CC[C@]5(CCN(CC(=O)N6CC=C(c7ccc(-c8ncc(F)cn8)cc7)CC6)C5)C4=O)cc23)cn1 [Example 23, (S)-7-(2-(4-(4-(5-Fluoropyrimidin-2-yl)phenyl)-3,6-dihydropyridin-1(2H)-yl)-2-oxoethyl)-2-(3-(6-isopropoxypyridin-3-yl)-1H-indazol-5-yl)-2,7-diazaspiro[4.4]nonan-1-one] |  |  |  | 
≤ 500 nM |  | ≤ 50 nM | ≤ 50 nM |  | O=C(CN1CC[C@]2(CCN(c3ccc4[nH]nc(-c5ccnc(C(F)(F)F)c5)c4c3)C2=O)C1)N1CC=C(c2ccc(-c3ncc(F)cn3)cc2)CC1 [Example 28, (S)-7-(2-(4-(4-(5-Fluoropyrimidin-2-yl)phenyl)-3,6-dihydropyridin-1(2H)-yl)-2-oxoethyl)-2-(3-(2-(trifluoromethyl)pyridin-4-yl)-1H-indazol-5-yl)-2,7-diazaspiro[4.4]nonan-1-one] |  |  |  | 
≤ 500 nM | ≤ 500 nM | ≤ 50 nM |  | ≤ 500 nM | O=C(Nc1ccc2[nH]nc(-c3ccncc3)c2c1)[C@@H]1CCN(CC(=O)N2CCN(c3ccc(-c4ncccn4)cc3)CC2)C1 [SCH772984] | ≤ 500 nM | ≤ 500 nM | 500 to 1000 nM | 500 to 1000 nM
≥ 1000 nM |  | ≥ 250 nM | ≥ 250 nM |  | CC(C)Oc1ccc(-c2n[nH]c3ccc(N4CC[C@]5(CCN(CC(=O)N6CCC(F)(c7ccc(-c8ncn(C)n8)cc7)CC6)C5)C4=O)cc23)cn1 [Example 27] |  |  |  | 
≤ 500 nM |  | ≤ 50 nM | ≤ 50 nM |  | Cn1cnc(-c2ccc(C3=CCN(C(=O)CN4CC[C@]5(CCN(c6ccc7[nH]nc(-c8ccncc8F)c7c6)C5=O)C4)CC3)cc2)n1 [Example 31, (S)-2-(3-(3-Fluoropyridin-4-yl)-1H-indazol-5-yl)-7-(2-(4-(4-(1-methyl-1H-1,2,4-triazol-3-yl)phenyl)-3,6-dihydropyridin-1(2H)-yl)-2-oxoethyl)-2,7-diazaspiro[4.4]nonan-1-one] |  |  |  | 
≤ 500 nM | ≤ 500 nM | ≤ 50 nM | ≤ 50 nM |  | Cc1ccc(-c2n[nH]c3ccc(N4CCC5(CCN(CC(=O)N6CC=C(c7ccc(-c8ncn(C)n8)cc7)CC6)C5)C4=O)cc23)cn1 (stereo not shown) [Example 7, 7-(2-(4-(4-(1-Methyl-1H-1,2,4-triazol-3-yl)phenyl)-3,6-dihydropyridin-1(2H)-yl)-2-oxoethyl)-2-(3-(6-methylpyridin-3-yl)-1H-indazol-5-yl)-2,7-diazaspiro[4.4]nonan-1-one] |  |  |  | 
≤ 500 nM | ≤ 500 nM | ≤ 50 nM | ≤ 50 nM |  | Cc1nnc(-c2ccc(C3=CCN(C(=O)CN4CC[C@]5(CCN(c6ccc7[nH]nc(-c8ccc(OC(C)C)nc8)c7c6)C5=O)C4)CC3)cc2)o1 [Example 17, (S)-2-(3-(6-Isopropoxypyridin-3-yl)-1H-indazol-5-yl)-7-(2-(4-(4-(5-methyl-1,3,4-oxadiazol-2-yl)phenyl)-3,6-dihydropyridin-1(2H)-yl)-2-oxoethyl)-2,7-diazaspiro[4.4]nonan-1-one] |  |  |  | 
≤ 500 nM |  |  | ≤ 50 nM | ≤ 500 nM | Cn1cnc(-c2ccc(C3=CCN(C(=O)CN4CC[C@]5(CCN(c6ccc7[nH]nc(-c8ccnc(C9(C(F)(F)F)CC9)c8)c7c6)C5=O)C4)CC3)cc2)n1 [Example 38, (S)-7-(2-(4-(4-(1-Methyl-1H-1,2,4-triazol-3-yl)phenyl)-3,6-dihydropyridin-1 (2H)-yl)-2-oxoethyl)-2-(3-(2-(1-(trifluoromethyl)cyclopropyl)pyridin-4-yl)-1H-indazol-5-yl)-2,7-diazaspiro[4.4]nonan-1-one] | ≥ 1000 nM | ≤ 500 nM | ≥ 1000 nM | 500 to 1000 nM
≤ 500 nM | ≤ 500 nM | ≤ 50 nM | ≤ 50 nM |  | Cn1cnc(-c2ccc(C3=CCN(C(=O)CN4CC[C@]5(CCN(c6ccc7[nH]nc(-c8ccnc(C(F)(F)F)c8)c7c6)C5=O)C4)CC3)cc2)n1 [Example 20, (S)-7-(2-(4-(4-(1-Methyl-1H-1,2,4-triazol-3-yl)phenyl)-3,6-dihydropyridin-1 (2H)-yl)-2-oxoethyl)-2-(3-(2-(trifluoromethyl)pyridin-4-yl)-1H-indazol-5-yl)-2,7-diazaspiro[4.4]nonan-1-one] |  |  |  | 
≥ 1000 nM |  | ≥ 250 nM | 50 to 250 nM |  | CC(C)Oc1ccc(-c2n[nH]c3ccc(N4CC[C@]5(CCN(CC(=O)N6CC=C(c7ccc(-c8ncccn8)cn7)CC6)C5)C4=O)cc23)cn1 [Example 25, (S)-2-(3-(6-Isopropoxypyridin-3-yl)-1H-indazol-5-yl)-7-(2-oxo-2-(5-(pyrimidin-2-yl)-3′,6′-dihydro-[2,4′-bipyridin]-1′(2′H)-yl)ethyl)-2,7-diazaspiro[4.4]nonan-1-one] |  |  |  | 
≤ 500 nM |  | ≤ 50 nM | ≤ 50 nM | ≤ 500 nM | Cn1cnc(-c2ccc(C3=CCN(C(=O)CN4CC[C@]5(CCN(c6ccc7[nH]nc(-c8ccc(F)cc8)c7c6)C5=O)C4)CC3)cc2)n1 [Example 29, (S)-2-(3-(4-Fluorophenyl)-1H-indazol-5-yl)-7-(2-(4-(4-(1-methyl-1H-1,2,4-triazol-3-yl)phenyl)-3,6-dihydropyridin-1(2H)-yl)-2-oxoethyl)-2,7-diazaspiro[4.4]nonan-1-one] | ≤ 500 nM | ≤ 500 nM | 500 to 1000 nM | ≤ 500 nM
≤ 500 nM | ≤ 500 nM | ≤ 50 nM | ≤ 50 nM |  | CC(C)Oc1ccc(-c2n[nH]c3ccc(N4CC[C@]5(CCN(CC(=O)N6CC=C(c7ccc(-c8cn(C)nn8)cc7)CC6)C5)C4=O)cc23)cn1 [Example 15, (S)-2-(3-(6-isopropoxypyridin-3-yl)-1H-indazol-5-yl)-7-(2-(4-(4-(1-methyl-1H-1,2,3-triazol-4-yl)phenyl)-3,6-dihydropyridin-1 (2H)-yl)-2-oxoethyl)-2,7-diazaspiro[4.4]nonan-1-one] |  |  |  | 
